Tested on: T1, free cholesterol esterase
T1 construct: commercial Pseudomonas cholesterol esterase (Sigma-Aldrich), free
Assay: coupled cholesterol oxidase/peroxidase assay at […] nm, Lineweaver-Burk
Type: biochemical
Conditions: free enzyme; taurocholate, pH 7.0, 37 °C; substrate of the kinetic run not named, taken from the activity assay

Km: 48.8 µM
SMILES: CCCCCCCC/C=C\CCCCCCCC(=O)O[C@H]1CC[C@@]2(C)C(=CC[C@H]3[C@@H]4CC[C@H]([C@H](C)CCCC(C)C)[C@@]4(C)CC[C@@H]32)C1 [cholesteryl oleate]
